Entries after “also recorded” stand apart in the source; their conditions may differ.
Columns and labels:
HCT-116 = assay: In vitro cytotoxicity assay (MTT); type: cell-based; details: Homo sapiens, 144 h, 6 days incubation
Procedure: (§1) In vitro cytotoxicity of compounds of the disclosure was assessed on several cancerous human cell lines. Cells were plated in 96-well plates at an appropriate density depending on the cell line (between 1000 and 10 000 cells/well in 100µL of appropriate culture media) and incubated at 37°C for 24 hours. Serial dilutions of the tested compound previously dissolved in culture media (50µL) were added, and incubation was carried at 37°C out for 6 days. MTT (5mg/mL in PBS, 20µL, Sigma-Aldrich) was added into the wells, and incubation was continued for 1 to 4 hours at 37°C. Culture media was then carefully removed, and well content was homogeneously dissolved with acidified isopropanol. Absorbance values were measured on a microplate reader using a wavelength of 570 nm (with a reference wavelength of 690 nm). The IC50 concentration values compared to untreated control cells were determined using inhibition dose response curve fitting (GraphPad Prism 9). Exatecan mesylate (cat#HY-13631A) and CR8 (CAS# 294646-77-8; cat#HY-18340) were purchased from MedChemExpress (China).

HT-29 = assay: In vitro cytotoxicity assay (MTT); type: cell-based; details: Homo sapiens, 144 h, 6 days incubation
Procedure: as §1

BXPC3 = assay: In vitro cytotoxicity assay (MTT); type: cell-based; details: Homo sapiens, BXPC-3, 144 h, 6 days incubation
Procedure: as §1

MCF-7 = assay: In vitro cytotoxicity assay (MTT); type: cell-based; details: Homo sapiens, MCF7, 144 h, 6 days incubation
Procedure: as §1

OE-19 = assay: In vitro cytotoxicity assay (MTT); type: cell-based; details: Homo sapiens, OE19, 144 h, 6 days incubation
Procedure: as §1

A549 = assay: In vitro cytotoxicity assay (MTT); type: cell-based; details: Homo sapiens, 144 h, 6 days incubation
Procedure: as §1

Caco-2 = assay: In vitro cytotoxicity assay (MTT); type: cell-based; details: Homo sapiens, 144 h, 6 days incubation
Procedure: as §1

KB-1 = assay: In vitro cytotoxicity assay (MTT); type: cell-based; details: Homo sapiens, KB16, 144 h, 6 days incubation
Procedure: as §1

JIMT-1 = assay: In vitro cytotoxicity assay (MTT); type: cell-based, human; details: Homo sapiens, 144 h, 6 days incubation
Procedure, shortened: (§2)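 MTT read-out, A570/A690 after acidified-isopropanol solubilisation. Seeding 1000–10 000 cells/well, 24 h settle, serial dilutions, 6 d exposure at 37°C, MTT 1–4 h. IC50 vs untreated control by inhibition curve fit.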

NCI-N87 = assay: In vitro cytotoxicity assay (MTT); type: cell-based, human; details: Homo sapiens, 144 h, 6 days incubation
Procedure, shortened: as §2

SKBR-3 = assay: In vitro cytotoxicity assay (MTT); type: cell-based, human; details: Homo sapiens, SK-BR-3, 144 h, 6 days incubation
Procedure, shortened: as §2

BT-474 = assay: In vitro cytotoxicity assay (MTT); type: cell-based, human; details: Homo sapiens, BT-474, 144 h
Procedure, shortened: as §2

MDA-MB-231 = assay: In vitro cytotoxicity assay (MTT); type: cell-based, human; details: Homo sapiens, 144 h, 6 days incubation
Procedure, shortened: as §2

MDA-MB-453 = assay: In vitro cytotoxicity assay (MTT); type: cell-based, human; details: Homo sapiens, 144 h, 6 days incubation
Procedure, shortened: as §2

CDK9/CycT1 = target: T1, CDK9/CycT1 (Homo sapiens, UniProt P50750); assay: IC50 profiling on top 25 protein kinases; type: biochemical; details: titration from 0.1 nM to 10 000 nM
T1 construct: GST-fusion or His-tag (not given for this kinase); purchased Reaction Biology, Germany; host or cells: Sf9 insect cells or E.coli
T1 sequence (P50750 whole entry, the tested form may be a part): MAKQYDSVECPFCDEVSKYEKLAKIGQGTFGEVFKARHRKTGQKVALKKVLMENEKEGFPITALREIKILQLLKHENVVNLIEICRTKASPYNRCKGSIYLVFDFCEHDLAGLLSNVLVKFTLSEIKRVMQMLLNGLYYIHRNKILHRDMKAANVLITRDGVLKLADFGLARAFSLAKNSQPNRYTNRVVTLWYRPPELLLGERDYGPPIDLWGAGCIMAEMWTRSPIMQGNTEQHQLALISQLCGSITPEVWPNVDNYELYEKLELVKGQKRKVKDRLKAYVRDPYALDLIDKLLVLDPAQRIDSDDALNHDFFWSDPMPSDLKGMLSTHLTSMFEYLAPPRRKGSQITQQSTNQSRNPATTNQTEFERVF
T1 sequence (O60563 whole entry partner, the tested form may be a part): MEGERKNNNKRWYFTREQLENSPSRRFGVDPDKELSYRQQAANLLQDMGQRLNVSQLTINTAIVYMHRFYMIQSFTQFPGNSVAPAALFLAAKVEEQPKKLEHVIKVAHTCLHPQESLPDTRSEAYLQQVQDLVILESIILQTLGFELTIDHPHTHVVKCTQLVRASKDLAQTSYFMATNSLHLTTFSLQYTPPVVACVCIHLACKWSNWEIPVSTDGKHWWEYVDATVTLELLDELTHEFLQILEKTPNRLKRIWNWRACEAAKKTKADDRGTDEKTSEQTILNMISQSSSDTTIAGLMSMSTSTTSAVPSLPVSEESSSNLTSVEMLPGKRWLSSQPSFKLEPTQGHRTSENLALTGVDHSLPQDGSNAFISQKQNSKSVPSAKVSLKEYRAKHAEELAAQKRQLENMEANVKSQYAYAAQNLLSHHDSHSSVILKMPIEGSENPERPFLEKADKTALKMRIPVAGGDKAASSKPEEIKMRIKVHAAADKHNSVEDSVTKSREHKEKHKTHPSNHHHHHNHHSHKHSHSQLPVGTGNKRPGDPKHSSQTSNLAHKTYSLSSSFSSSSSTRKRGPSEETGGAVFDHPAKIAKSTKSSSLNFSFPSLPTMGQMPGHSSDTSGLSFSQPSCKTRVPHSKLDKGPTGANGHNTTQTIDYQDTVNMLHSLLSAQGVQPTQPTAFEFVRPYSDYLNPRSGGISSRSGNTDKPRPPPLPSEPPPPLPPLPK
Procedure: Compound 2384 according to the disclosure was subjected to kinase screening assays (performed at Reaction Biology, Germany). […] A radiometric protein kinase assay (33PanQinase® ActivityAssay) was used for measuring the kinase activity of 340 protein kinases. All kinase assays were performed in 96-well FlashPlates™ from Perkin Elmer (Boston, MA, USA) in a 50 µL reaction volume. […] All PKC assays (except the PKC-mu and the PKC-nu assay) additionally contained 1 mM CaCl2, 4 mM EDTA, 5 µg/m! Phosphatidylserine and 1 µg/m! 1,2-Dioleyl-glycerol. The CAMK1D, CAMK2A, CAMK2B, CAMK2D, CAMK2G, CAMK4, CAMKK1, CAMKK2, DAPK2, EEF2K, MYLK, MYLK2 and MYLK3 assays additionally contained 1 µg/ml Calmodulin and 0.5 mM CaCl2. The PRKG1 and PRKG2 assays additionally contained 1 µM cGMP. The DNA-PK assay additionally contained 2.5 µg/ml DNA. The protein kinase reaction cocktails were incubated at 30°C for 60 minutes. The reaction was stopped with 50 µl of 2 % (v/v) H3PO4, plates were aspirated and washed two times with 200 µL 0.9 % (w/v) NaCl. Incorporation of 33Pi (counting of "cpm") was determined with a microplate scintillation counter (Microbeta, Wallac). All protein kinase assays were performed with a BeckmanCoulter Biomek 2000/SL robotic system. All protein kinases provided by RBE were expressed in Sf9 insect cells or in E.coli as recombinant GST-fusion proteins or His-tagged proteins, either as full-length or enzymatically active fragments. All kinases were produced from human cDNAs and purified by either GSH-affinity chromatography or immobilized metal. Affinity tags were removed from a number of kinases during purification. The purity of the protein kinases was examined by SDS-PAGE/Coomassie staining, the identity was checked by mass spectroscopy. Kinases from external vendors were expressed, purified and quality-controlled. Staurosporine was used as positive control.
Staurosporine was used as positive control.

CycK = CycK protein quantification by Western Blot; type: cell-based, human
Procedure: 1×10^6 JIMT-1 cells were plated in 3mL of DMEM/FBS 90:10 (v/v) in 6-well plates and incubated overnight. Cells were treated with the compound 2384 of the invention with or without the proteasome inhibitor MG-132 (MedChemExpress, Cat HY-13259) for 2h. Cells were harvested, and protein were extracted using complete RIPA buffer (RIPA buffer, 1 mM DTT, 1M NaF, 100 mM sodium orthovanadate, phosphatase inhibitor buffer and protease inhibitors) for 1 hour on ice. Lysate were centrifuged 15min at 12 000g at 4°C. and proteins were mixed with 4x Laemmli Sample Buffer (Bio-Rad), heated at 95 °C for 5 mins and separated by SDS PAGE (PROTEAN TGX Stain-Free Gels, Bio-Rad). Proteins were then transferred onto PVDF membrane (iBlot®2 PVDF stacks, Invitrogen) using the iBlot2 device (Invitrogen) and blocked with TBS buffer (Intercept® Blocking Buffer, LI-COR Biosciences). Primary antibodies were incubated overnight at 4°C and secondary antibodies (IRDye Infrared Dyes from LI-COR Biosciences) 1 hour at room temperature. Used primary antibody were: anti-CycK (cat#A301-939A, Bethyl Laboratories, dil. 1:1000) and anti-β-actin (cat#A5441, Sigma-Aldrich, dil. 1:5000). Membranes were scanned using a c500 Imaging System (Azure Biosystems) and densitometric quantification were performed using imaged software. Protein levels were normalized against β-actin.

[1] = tested on: cancerous human cell lines; assay: In vitro cytotoxicity assay (MTT), side-by-side comparisons over the cell line panel; type: cell-based; details: side-by-side comparison (Figures 1-3, Table 3), result in words
Procedure: as §1

N[C@H]1CC[C@H](Nc2nc(NCc3ccc(-c4ccccn4)cc3)n3ncc(Br)c3n2)CC1 [Compound 2384]
IC50 (HCT-116): 1190 pM
IC50 (HT-29): 220 pM
IC50 (BXPC3): 1460 pM
IC50 (MCF-7): 3420 pM
IC50 (OE-19): 2240 pM
IC50 (A549): 560 pM
IC50 (Caco-2): 6640 pM
IC50 (KB-1): 380 pM
IC50 (JIMT-1): 250 pM
IC50 (NCI-N87): 760 pM
IC50 (SKBR-3): 730 pM
IC50 (BT-474): 940 pM
IC50 (MDA-MB-231): 380 pM
IC50 (MDA-MB-453): 530 pM
IC50 (CDK9/CycT1): < 25000 pM
CycK degradation (CycK; 10nM, 2h treatment of JIMT-1 cells): complete CycK degradation
CycK protein content (CycK; JIMT-1 cells, 1µM, 2h): decreased CycK protein content
minimum effective dose for CycK degradation compared with CR8 (CycK; JIMT-1 cells, 2h): approximately 10 times lower
CycK protein content (CycK; JIMT-1 cells, combination with the proteasome inhibitor MG-132, 2h): restored the content in cycK protein
in vitro cytotoxicity potency [1]: more potent compared to its isopropyl counterpart; also recorded: drastically improved low nanomolar potencies
